Source: US20250304583A1, “INHIBITING G CYCLIC AMP-RESPONSIVE ELEMENT-BINDING PROTEIN (CREB) BINDING PROTEIN (CBP)” (FORMA Therapeutics, Inc., priority 2020, published 2025)
Counter-ions that a name gives are not always drawn.

What was measured:
[1] = Solid form stability at temperature and relative humidity; format: physicochemical; settings: temperatures up to 40° C. and relative humidity of up to 75%
[2] = Dynamic vapor sorption (hygroscopicity); format: physicochemical; settings: relative humidity of up to 80%, dynamic vapor sorption isotherm
Text: Dynamic Vapor Sorption (DVS) data were collected with a SMS DVS Intrinsic from Surface Measurement Systems.

[3] = test system: panel of 10 BRD representing the various branches of the bromodomain tree; test: AlphaScreen panel of 10 bromodomains; format: binding; settings: number of bromodomains out of 10

SMILES	stability of solid form [1]	water uptake [2] [%]	activity against 10 bromodomains surveyed [3]
COC(=O)N1c2ccc3c(nc([C@H](O)c4cc(F)ccc4OC)n3[C@@H]3CCC[C@@H](C(=O)O)C3)c2CC[C@@H]1C [type B p-toluenesulfonic acid addition salt] [(1R,3R)-3-((S)-2-((R)-(5-fluoro-2-methoxyphenyl)(hydroxy)methyl)-6-(methoxycarbonyl)-7-methyl-6,7,8,9-tetrahydro-3H-imidazo[4,5-f]quinolin-3-yl) cyclohexane-1-carboxylic acid]	stable for at least two weeks	2.1	
COC(=O)N1c2ccc3c(nc([C@H](O)c4cc(F)ccc4OC)n3[C@@H]3CCC[C@@H](C(=O)O)C3)c2CC[C@@H]1C [Compound 1, (1R,3R)-3-[(7S)-2-[(R)-(5-fluoro-2-methoxyphenyl)(hydroxy)methyl]-6-(methoxycarbonyl)-7-methyl-3H,6H,7H,8H,9H-imidazo[4,5-f]quinolin-3-yl]cyclohexane-1-carboxylic acid]			inactive against 8
COC(=O)N1c2ccc3c(nc([C@H](O)c4cc(F)ccc4OC)n3[C@@H]3CCC[C@@H](C(=O)O)C3)c2CC[C@@H]1C [HCl type A salt, (1R,3R)-3-((S)-2-((R)-(5-fluoro-2-methoxyphenyl)(hydroxy)methyl)-6-(methoxycarbonyl)-7-methyl-6,7,8,9-tetrahydro-3H-imidazo[4,5-f]quinolin-3-yl) cyclohexane-1-carboxylic acid]	stable for at least two weeks	6.3	
